In ChEMBL document CHEMBL4673242, “Penithoketone and Penithochromones A-L, Polyketides from the Deep-Sea-Derived Fungus Penicillium thomii YPGA3” (J Nat Prod, 2020):

Assays:
MCF7 [1] = assay: Cytotoxicity against human MCF7 cells assessed as reduction in cell viability at 50 uM after 72 hrs by MTT assay relative to control; format: functional
LNCaP C4-2B [2] = assay: Cytotoxicity against human LNCaP C4-2B cells assessed as reduction in cell viability at 50 uM after 72 hrs by MTT assay relative to control; format: functional
RAW264.7 = assay: Inhibition of LPS-induced NO production in mouse RAW264.7 cells at 50 uM relative to control; format: functional
LNCaP C4-2B [3] = assay: Cytotoxicity against human LNCaP C4-2B cells assessed as reduction in cell viability after 72 hrs by MTT assay; format: functional, cell-based
MDA-MB-468 [4] = assay: Cytotoxicity against human MDA-MB-468 cells assessed as reduction in cell viability at 50 uM after 72 hrs by MTT assay relative to control; format: functional
LNCaP C4-2B [5] = assay: Cytotoxicity against human enzalutamide-resistant LNCaP C4-2B cells assessed as reduction in cell viability at 50 uM after 72 hrs by MTT assay relative to control; format: functional
MCF7 [6] = assay: Cytotoxicity against human MCF7 cells assessed as reduction in cell viability after 72 hrs by MTT assay; format: functional, cell-based; settings: MCF7, 72 h
MDA-MB-468 [7] = assay: Cytotoxicity against human MDA-MB-468 cells assessed as reduction in cell viability after 72 hrs by MTT assay; format: functional, cell-based; settings: MDA-MB-468, 72 h
LNCaP C4-2B [8] = assay: Cytotoxicity against human enzalutamide-resistant LNCaP C4-2B cells assessed as reduction in cell viability after 72 hrs by MTT assay; format: functional, cell-based

Row | SMILES | Activity (MCF7 [1]) | Activity (LNCaP C4-2B [2]) | inhibition at 50 µM (RAW264.7) | IC50 (LNCaP C4-2B [3]) | Activity (MDA-MB-468 [4]) | Activity (LNCaP C4-2B [5]) | IC50 (MCF7 [6]) | IC50 (MDA-MB-468 [7]) | IC50 (LNCaP C4-2B [8])
1 | COC1=C(O)C(=O)c2c(O)cccc2C1=O | >50% | >50% | < 30% | 41 µM | >50% | >50% | > 50 µM | 38 µM | > 50 µM
2 | COc1cc(OC)c2c(=O)cc(CCCC/C=C/C(=O)O)oc2c1 | <30% | <30% | < 30% |  | <30% | <30% |  |  | 
3 | COc1cc(OC)c2c(=O)cc(CCCCCCC(=O)O)oc2c1 | <30% | <30% | < 30% |  | <30% | <30% |  |  | 
4 | COC(=O)CCc1cc(=O)c2c(OC)cc(OC)cc2o1 | <30% | <30% | < 30% |  | <30% | <30% |  |  | 
5 | COC(=O)CCCCCCc1cc(=O)c2c(OC)cc(OC)cc2o1 | <30% | <30% | < 30% |  | <30% | <30% |  |  | 
6 | COC1=C(O)C(=O)c2c(O)cccc2[C@@]1(OC)[C@@H](C)C1=CC(=O)OC1 | >50% | >50% | < 30% | 9.1 µM | >50% | >50% | 21 µM | 15 µM | 14 µM
7 | COc1cc(OC)c2c(=O)cc(CCCCC(=O)O)oc2c1 | <30% | <30% | < 30% |  | <30% | <30% |  |  | 
8 | COC(=O)CCCc1cc(=O)c2c(OC)cc(O)cc2o1 | <30% | <30% | < 30% |  | <30% | <30% |  |  | 
9 | COC(=O)CCCCCCc1cc(=O)c2c(O)cc(OC)cc2o1 | <30% | <30% | < 30% |  | <30% | <30% |  |  | 
10 | O=C(O)CCCCCCc1cc(=O)c2c(O)cc(O)cc2o1 | <30% | <30% | < 30% |  | <30% | <30% |  |  | 
11 | COC(=O)CCCCCCc1cc(=O)c2c(OC)cc(O)cc2o1 | <30% | <30% | < 30% |  | <30% | <30% |  |  | 
12 | COC(=O)CCCCc1cc(=O)c2c(OC)cc(OC)cc2o1 | <30% | <30% | < 30% |  | <30% | <30% |  |  | 
13 | COC(=O)CCCCCCc1cc(=O)c2c(O)cc(O)cc2o1 | <30% | <30% | < 30% |  | <30% | <30% |  |  | 
14 | COC1=CC(=O)c2c(O)cccc2C1=O | >50% | >50% | < 30% | 6.4 µM | >50% | >50% | 11 µM | 4.9 µM | 13 µM
15 | COc1cc(O)c2c(=O)cc(CCCCCCC(=O)O)oc2c1 | <30% | <30% | < 30% |  | <30% | <30% |  |  | 
